Like-named read-outs stand apart in the source and are kept apart here.
What was measured:
[1] = test system: Coagulase negative Staphylococcus; assay: Antibiotic susceptibility of coagulase negative Staphylococcus strains; format: cell-based
[2] = test system: Enterobacter cloacae complex; assay: Antibiotic susceptibility of Enterobacter cloacae complex strain; format: cell-based; conditions: Ecc1 (Enterobacter cloacae complex)
Source text: (§1) All these MDR-bacteria are at least resistant to two classes of the antibiotics among five groups and/or specific antibiotics including quinolones/fluorquinolones, carbapenems, cephalosporins, aminoglycosides and piperacillin-tazobactam.

Citrobacter koseri = assay: Antibiotic susceptibility of Citrobacter koseri strain; format: cell-based; conditions: Ck1 (Citrobacter koseri)
Source text: as §1

Klebsiella pneumonia = assay: Antibiotic susceptibility of Klebsiella pneumonia strains; format: cell-based
Source text: as §1

Staphylococcus hominis = format: cell-based
Protocol: (§2) It was also tested whether compounds #63 and #285 can inhibit other coagulase-negative Staphylococcus (CNS) including S. epidermidis, S. hominis, etc. […].

[3] = test system: Staphylococcus epidermidis; format: cell-based
Protocol: as §2

[4] = test system: S. aureus ATCC strains and MRSA; format: cell-based, Staphylococcus aureus
Morganella morganii = assay: Antibiotic susceptibility of Morganella morganii strain; format: cell-based; conditions: Mm1 (Morganella morganii)
Source text: as §1

[5] = test system: MDR Acinetobacter baumannii; format: cell-based
Source text: as §1

MDR E. coli = format: cell-based
Source text: as §1

[6] = CNS1 (Coagulase negative Staphylococcus)
[7] = CNS2 (Coagulase negative Staphylococcus)
[8] = Se1 (Staphylococcus epidermidis)
[9] = Se2 (Staphylococcus epidermidis)
[10] = Se3 (Staphylococcus epidermidis)
[11] = Se4 (Staphylococcus epidermidis)
[12] = Se5 (Staphylococcus epidermidis)

## O=C1CN(/N=C/c2ccc([N+](=O)[O-])o2)C(=O)N1 [NIT, Nitrofurantoin]
[1]; [6]
  Antibiotic susceptibility: S
[1]; [7]
  Antibiotic susceptibility: S
[2]
  Antibiotic susceptibility: S
Citrobacter koseri
  Antibiotic susceptibility: R
Klebsiella pneumonia; Kp1 (Klebsiella pneumonia)
  Antibiotic susceptibility: S
Klebsiella pneumonia; Kp6 (Klebsiella pneumonia)
  Antibiotic susceptibility: R
Staphylococcus hominis
  Antibiotic susceptibility: S
[3]
  Antibiotic susceptibility: S
[4]; S. aureus ATCC 25923
  Antibiotic susceptibility: S
[4]; S. aureus ATCC 29213
  Antibiotic susceptibility: S
[4]; S. aureus ATCC BAA 976
  Antibiotic susceptibility: S
[4]; S. aureus ATCC BAA 977
  Antibiotic susceptibility: S
[4]; S. aureus ATCC BAA 1026
  Antibiotic susceptibility: S
[4]; Sa1 (MRSA)
  Antibiotic susceptibility: S
[4]; Sa2 (MRSA)
  Antibiotic susceptibility: S
[4]; Sa3 (MRSA)
  Antibiotic susceptibility: S
[4]; Sa6 (MRSA)
  Antibiotic susceptibility: S
[4]; Sa7 (MRSA)
  Antibiotic susceptibility: S
[4]; Sa9 (MRSA)
  Antibiotic susceptibility: S
[4]; Sa11 (MRSA)
  Antibiotic susceptibility: S
[4]; Sa12 (MRSA)
  Antibiotic susceptibility: S
[4]; Sa14 (MRSA)
  Antibiotic susceptibility: S
[4]; Sa15 (MRSA)
  Antibiotic susceptibility: S
[4]; Sa16 (MRSA)
  Antibiotic susceptibility: S
[4]; Sa17 (MRSA)
  Antibiotic susceptibility: S
[4]; Sa18 (MRSA)
  Antibiotic susceptibility: S
[4]; Sa19 (MRSA)
  Antibiotic susceptibility: S
[4]; Sa20 (MRSA)
  Antibiotic susceptibility: S
[4]; Sa21 (MRSA)
  Antibiotic susceptibility: S
[4]; Sa22 (MRSA)
  Antibiotic susceptibility: S
[4]; Sa23 (MRSA)
  Antibiotic susceptibility: S
Morganella morganii
  Antibiotic susceptibility: R
[5]; Ab1 (Acinetobacter baumannii)
  Antibiotic susceptibility: R
[5]; Ab2 (Acinetobacter baumannii)
  Antibiotic susceptibility: R
[5]; Ab3 (Acinetobacter baumannii)
  Antibiotic susceptibility: R
[5]; Ab4 (Acinetobacter baumannii)
  Antibiotic susceptibility: R
[5]; Ab5 (Acinetobacter baumannii)
  Antibiotic susceptibility: R
MDR E. coli; Ec1 (E. coli)
  Antibiotic susceptibility: S
MDR E. coli; Ec2 (E. coli)
  Antibiotic susceptibility: S
MDR E. coli; Ec3 (E. coli)
  Antibiotic susceptibility: S
MDR E. coli; Ec4 (E. coli)
  Antibiotic susceptibility: S
MDR E. coli; Ec5 (E. coli)
  Antibiotic susceptibility: S

## Gentamicin
[1]; [6]
  Antibiotic susceptibility: S
[1]; [7]
  Antibiotic susceptibility: S
[2]
  Antibiotic susceptibility: R
Citrobacter koseri
  Antibiotic susceptibility: R
Klebsiella pneumonia; Kp1 (Klebsiella pneumonia)
  Antibiotic susceptibility: S
Klebsiella pneumonia; Kp6 (Klebsiella pneumonia)
  Antibiotic susceptibility: S
Staphylococcus hominis; Sh1 (Staphylococcus hominis)
  Antibiotic susceptibility: S
Staphylococcus hominis; Sh2 (Staphylococcus hominis)
  Antibiotic susceptibility: S
Staphylococcus hominis; Sh3 (Staphylococcus hominis)
  Antibiotic susceptibility: S
[3]; [8]
  Antibiotic susceptibility: S
[3]; [9]
  Antibiotic susceptibility: S
[3]; [10]
  Antibiotic susceptibility: R
[3]; [11]
  Antibiotic susceptibility: R
[3]; [12]
  Antibiotic susceptibility: I
[4]; S. aureus ATCC 25923
  Antibiotic susceptibility: S
[4]; S. aureus ATCC 29213
  Antibiotic susceptibility: S
[4]; S. aureus ATCC BAA 976
  Antibiotic susceptibility: S
[4]; S. aureus ATCC BAA 977
  Antibiotic susceptibility: S
[4]; S. aureus ATCC BAA 1026
  Antibiotic susceptibility: R
[4]; Sa1 (MRSA)
  Antibiotic susceptibility: S
[4]; Sa2 (MRSA)
  Antibiotic susceptibility: S
[4]; Sa3 (MRSA)
  Antibiotic susceptibility: S
[4]; Sa5 (MRSA)
  Antibiotic susceptibility: S
[4]; Sa6 (MRSA)
  Antibiotic susceptibility: S
[4]; Sa7 (MRSA)
  Antibiotic susceptibility: S
[4]; Sa8 (MRSA)
  Antibiotic susceptibility: S
[4]; Sa9 (MRSA)
  Antibiotic susceptibility: S
[4]; Sa10 (MRSA)
  Antibiotic susceptibility: S
[4]; Sa11 (MRSA)
  Antibiotic susceptibility: S
[4]; Sa12 (MRSA)
  Antibiotic susceptibility: S
[4]; Sa14 (MRSA)
  Antibiotic susceptibility: S
[4]; Sa15 (MRSA)
  Antibiotic susceptibility: S
[4]; Sa16 (MRSA)
  Antibiotic susceptibility: S
[4]; Sa17 (MRSA)
  Antibiotic susceptibility: S
[4]; Sa18 (MRSA)
  Antibiotic susceptibility: S
[4]; Sa19 (MRSA)
  Antibiotic susceptibility: S
[4]; Sa20 (MRSA)
  Antibiotic susceptibility: S
[4]; Sa21 (MRSA)
  Antibiotic susceptibility: S
[4]; Sa22 (MRSA)
  Antibiotic susceptibility: S
[4]; Sa23 (MRSA)
  Antibiotic susceptibility: S
Morganella morganii
  Antibiotic susceptibility: R
[5]; Ab1 (Acinetobacter baumannii)
  Antibiotic susceptibility: S
[5]; Ab2 (Acinetobacter baumannii)
  Antibiotic susceptibility: R
[5]; Ab3 (Acinetobacter baumannii)
  Antibiotic susceptibility: R
[5]; Ab4 (Acinetobacter baumannii)
  Antibiotic susceptibility: R
[5]; Ab5 (Acinetobacter baumannii)
  Antibiotic susceptibility: R
MDR E. coli; Ec1 (E. coli)
  Antibiotic susceptibility: R
MDR E. coli; Ec2 (E. coli)
  Antibiotic susceptibility: R
MDR E. coli; Ec3 (E. coli)
  Antibiotic susceptibility: R
MDR E. coli; Ec4 (E. coli)
  Antibiotic susceptibility: S
MDR E. coli; Ec5 (E. coli)
  Antibiotic susceptibility: S

## C[C@@H](O)[C@H]1C(=O)N2C(C(=O)O)=C(SCCN=CN)C[C@H]12 [IPM, Imipenem]
[2]
  Antibiotic susceptibility: S
Citrobacter koseri
  Antibiotic susceptibility: S
Klebsiella pneumonia; Kp1 (Klebsiella pneumonia)
  Antibiotic susceptibility: S
Klebsiella pneumonia; Kp6 (Klebsiella pneumonia)
  Antibiotic susceptibility: S
Morganella morganii
  Antibiotic susceptibility: S
[5]; Ab1 (Acinetobacter baumannii)
  Antibiotic susceptibility: S
[5]; Ab2 (Acinetobacter baumannii)
  Antibiotic susceptibility: I
[5]; Ab3 (Acinetobacter baumannii)
  Antibiotic susceptibility: I
[5]; Ab4 (Acinetobacter baumannii)
  Antibiotic susceptibility: I
[5]; Ab5 (Acinetobacter baumannii)
  Antibiotic susceptibility: R
MDR E. coli; Ec1 (E. coli)
  Antibiotic susceptibility: S
MDR E. coli; Ec2 (E. coli)
  Antibiotic susceptibility: S
MDR E. coli; Ec3 (E. coli)
  Antibiotic susceptibility: S
MDR E. coli; Ec4 (E. coli)
  Antibiotic susceptibility: S
MDR E. coli; Ec5 (E. coli)
  Antibiotic susceptibility: S

## C[C@H]1COc2c(N3CCN(C)CC3)c(F)cc3c(=O)c(C(=O)O)cn1c23 [LVX, levofloxacin]
[1]; [6]
  Antibiotic susceptibility: S
[1]; [7]
  Antibiotic susceptibility: R
[2]
  Antibiotic susceptibility: S
Citrobacter koseri
  Antibiotic susceptibility: I
Klebsiella pneumonia; Kp1 (Klebsiella pneumonia)
  Antibiotic susceptibility: S
Klebsiella pneumonia; Kp6 (Klebsiella pneumonia)
  Antibiotic susceptibility: R
Staphylococcus hominis; Sh1 (Staphylococcus hominis)
  Antibiotic susceptibility: R
Staphylococcus hominis; Sh2 (Staphylococcus hominis)
  Antibiotic susceptibility: S
Staphylococcus hominis; Sh3 (Staphylococcus hominis)
  Antibiotic susceptibility: S
[3]; [8]
  Antibiotic susceptibility: R
[3]; [9]
  Antibiotic susceptibility: S
[3]; [10]
  Antibiotic susceptibility: R
[3]; [11]
  Antibiotic susceptibility: R
[3]; [12]
  Antibiotic susceptibility: R
[4]; S. aureus ATCC 25923
  Antibiotic susceptibility: S
[4]; S. aureus ATCC 29213
  Antibiotic susceptibility: S
[4]; S. aureus ATCC BAA 976
  Antibiotic susceptibility: S
[4]; S. aureus ATCC BAA 977
  Antibiotic susceptibility: S
[4]; S. aureus ATCC BAA 1026
  Antibiotic susceptibility: R
[4]; Sa1 (MRSA)
  Antibiotic susceptibility: R
[4]; Sa2 (MRSA)
  Antibiotic susceptibility: R
[4]; Sa3 (MRSA)
  Antibiotic susceptibility: R
[4]; Sa6 (MRSA)
  Antibiotic susceptibility: R
[4]; Sa7 (MRSA)
  Antibiotic susceptibility: S
[4]; Sa9 (MRSA)
  Antibiotic susceptibility: R
[4]; Sa11 (MRSA)
  Antibiotic susceptibility: R
[4]; Sa12 (MRSA)
  Antibiotic susceptibility: R
[4]; Sa14 (MRSA)
  Antibiotic susceptibility: R
[4]; Sa15 (MRSA)
  Antibiotic susceptibility: R
[4]; Sa16 (MRSA)
  Antibiotic susceptibility: R
[4]; Sa17 (MRSA)
  Antibiotic susceptibility: R
[4]; Sa18 (MRSA)
  Antibiotic susceptibility: R
[4]; Sa19 (MRSA)
  Antibiotic susceptibility: S
[4]; Sa20 (MRSA)
  Antibiotic susceptibility: R
[4]; Sa21 (MRSA)
  Antibiotic susceptibility: S
[4]; Sa22 (MRSA)
  Antibiotic susceptibility: S
[4]; Sa23 (MRSA)
  Antibiotic susceptibility: S
Morganella morganii
  Antibiotic susceptibility: R
[5]; Ab1 (Acinetobacter baumannii)
  Antibiotic susceptibility: R
[5]; Ab2 (Acinetobacter baumannii)
  Antibiotic susceptibility: I
[5]; Ab3 (Acinetobacter baumannii)
  Antibiotic susceptibility: R
[5]; Ab4 (Acinetobacter baumannii)
  Antibiotic susceptibility: R
[5]; Ab5 (Acinetobacter baumannii)
  Antibiotic susceptibility: R
MDR E. coli; Ec1 (E. coli)
  Antibiotic susceptibility: S
MDR E. coli; Ec2 (E. coli)
  Antibiotic susceptibility: R
MDR E. coli; Ec3 (E. coli)
  Antibiotic susceptibility: S
MDR E. coli; Ec4 (E. coli)
  Antibiotic susceptibility: R
MDR E. coli; Ec5 (E. coli)
  Antibiotic susceptibility: R

## Trimethoprim-Sulfamethoxazole [SXT]
[1]; [6]
  Antibiotic susceptibility: S
[1]; [7]
  Antibiotic susceptibility: S
[2]
  Antibiotic susceptibility: S
Citrobacter koseri
  Antibiotic susceptibility: R
Klebsiella pneumonia; Kp1 (Klebsiella pneumonia)
  Antibiotic susceptibility: R
Klebsiella pneumonia; Kp6 (Klebsiella pneumonia)
  Antibiotic susceptibility: R
Staphylococcus hominis
  Antibiotic susceptibility: R and S
[3]
  Antibiotic susceptibility: R
[4]; S. aureus ATCC 25923
  Antibiotic susceptibility: S
[4]; S. aureus ATCC 29213
  Antibiotic susceptibility: S
[4]; S. aureus ATCC BAA 976
  Antibiotic susceptibility: S
[4]; S. aureus ATCC BAA 977
  Antibiotic susceptibility: S
[4]; S. aureus ATCC BAA 1026
  Antibiotic susceptibility: R
[4]; Sa1 (MRSA)
  Antibiotic susceptibility: R
[4]; Sa2 (MRSA)
  Antibiotic susceptibility: S
[4]; Sa3 (MRSA)
  Antibiotic susceptibility: S
[4]; Sa5 (MRSA)
  Antibiotic susceptibility: S
[4]; Sa6 (MRSA)
  Antibiotic susceptibility: S
[4]; Sa7 (MRSA)
  Antibiotic susceptibility: S
[4]; Sa8 (MRSA)
  Antibiotic susceptibility: S
[4]; Sa9 (MRSA)
  Antibiotic susceptibility: S
[4]; Sa10 (MRSA)
  Antibiotic susceptibility: S
[4]; Sa11 (MRSA)
  Antibiotic susceptibility: S
[4]; Sa12 (MRSA)
  Antibiotic susceptibility: S
[4]; Sa14 (MRSA)
  Antibiotic susceptibility: S
[4]; Sa15 (MRSA)
  Antibiotic susceptibility: R
[4]; Sa16 (MRSA)
  Antibiotic susceptibility: S
[4]; Sa17 (MRSA)
  Antibiotic susceptibility: S
[4]; Sa18 (MRSA)
  Antibiotic susceptibility: S
[4]; Sa19 (MRSA)
  Antibiotic susceptibility: S
[4]; Sa20 (MRSA)
  Antibiotic susceptibility: S
[4]; Sa21 (MRSA)
  Antibiotic susceptibility: S
[4]; Sa22 (MRSA)
  Antibiotic susceptibility: S
[4]; Sa23 (MRSA)
  Antibiotic susceptibility: S
[4]; number of resistant strains out of 21 MRSA strains
  MRSA strains resistant: 2/21
Morganella morganii
  Antibiotic susceptibility: R
[5]; Ab1 (Acinetobacter baumannii)
  Antibiotic susceptibility: R
[5]; Ab2 (Acinetobacter baumannii)
  Antibiotic susceptibility: R
[5]; Ab3 (Acinetobacter baumannii)
  Antibiotic susceptibility: R
[5]; Ab4 (Acinetobacter baumannii)
  Antibiotic susceptibility: R
[5]; Ab5 (Acinetobacter baumannii)
  Antibiotic susceptibility: R
MDR E. coli; Ec1 (E. coli)
  Antibiotic susceptibility: R
MDR E. coli; Ec2 (E. coli)
  Antibiotic susceptibility: R
MDR E. coli; Ec3 (E. coli)
  Antibiotic susceptibility: R
MDR E. coli; Ec4 (E. coli)
  Antibiotic susceptibility: S
MDR E. coli; Ec5 (E. coli)
  Antibiotic susceptibility: R

From patent US12502362B2, “Inhibitors of nucleotidyltransferase superfamily enzymes as antibiotics” (priority 2017, dated 2025)
